# Test results taken from patent US20230226184A1, “IMPROVEMENTS IN ULTRASOUND-MEDIATED THERAPY” (Bracco Suisse SA, priority 2020, published 2023).
# Legend:
# [1] = test system: mesenteric rat microcirculation; test: Vasospasm inhibition by vasospasm inhibitor pre-treatment before US-MV (Examples 4, 7); type: in vivo; settings: for ability to inhibit the vasospasm: Example 7, conditions of Table 6 (P02, US 400 kPa, 5 min); for Vasospasm occurrence (on 3 animals/condition) / Vasospasm occurrence, percent: P02 1.5E+09 MV/kg, 1 bolus, US 400 kPa, 1 ms ON/10 s OFF, 5 min
# Procedure: The model used for these experiments was the mesenteric rat microcirculation. Briefly, anesthetized animals were prepared to allow the visualization of an intestinal loop. The injections were made in the tail vein.
# Rats were placed under the inverted microscope (Olympus® X2) equipped with a X20 objectives (mag final: 200). A numeric camera, driven by an open source software, acquired and recorded 30 s video at each time points required, in accordance with the protocol.
# US treatment was delivered by an experimental single element transducer (unfocused, plane, 1.5 MHz). Table 1 reports the tested US parameters, including the pulse scheme, the acoustic pressure and the duration of US application, for each protocol. The transducer was focus on the optical objective and placed to respect a working distance of 5 cm.
# Image sequences were acquired, before, during and after treatment. Additional acquisitions could be performed every 5 min until 40 min after the initiation of US exposure to monitor the vasospasm resolution.
# The model used for these experiments was the mesenteric rat microcirculation. The model and animal preparation were described in example 2.
# This study aimed at the evaluation of the inhibition of vasospasm induced by a vasospasm inhibitor compound, in particular the dihydropiridine calcium channel blocker nimodipine.
# For this purpose, the rats received a pre-treatment with nimodipine, 10 mins before the combined treatment of gas-filled microvesicles and ultrasound for therapy.
# Nimodipine (Sigma Aldrich, Switzerland) powder was first diluted in DMSO (40 mg/ml); the injected dose (1.4 mg/kg) was extemporary prepared in NaCl 0.9% and injected 10 min before the treatment.
# The treatment parameters were chosen in accordance with the previous studies to obtain the generation of a vasospasm. P01 formulation was administered for this study.
# This study aimed at assessing the efficacy of different pharmacological classes of vasospasm inhibitor drugs currently used in clinic on the vasospasm inhibition.
# The duration between pre-treatment and injection of microvesicles and ultrasound treatment was in accordance with the pharmacocinetik pharmacokinetics and pharmacodynamics of each drug.
# NMU rat tumor model = test: Extravasation of Cy5.5-labeled 150 kDa-dextran in tumour after US-MV treatment (Example 1); type: in vivo
# Procedure: The model used was the NMU rat tumor model. Pre-pubescent rats (female, Sprague Dawley) received a single intra-peritoneal injection of 50 mg/kg of NMU (N-nitroso-N-methylurea, Sigma, Switzerland). Rats developing tumours were enrolled in protocol. In the NMU model, animals can develop several tumours allowing to have tumors receiving microvesicles and ultrasound for therapy; and tumors without ultrasound insonation (called untreated) in the same animal. The rats were anesthetized and placed on dorsal decubitus. A catheter was placed in the tail vein to inject drugs and microvesicles. The US treatment transducer was placed at 5 cm of the tumor (spaced by a water tank). […] To evaluate the efficiency of molecular extravasation, a 150 kDa-dextran labeled with Cy©5.5 fluorophore was injected just before therapeutic treatment with ultrasounds and microvesicles. […] Tumors were then harvested from sacrificed animals; the fluorescence was quantified on image acquired ex vivo (Fluobeam® 700). The fluorescence was quantified by ImageJ software.
# mouse DA3 tumor model = test: Tumour perfusion during US-MV treatment followed by contrast echography (Example 5); type: in vivo; settings: Nimodipine 1.4 mg/kg iv 10 min before; P01 1.3E+09 MV/kg, 4 boluses; US 800 kPa, 1 ms ON/15 s OFF, 25 min
# Procedure: The mouse DA3 tumor model was used in these studies. The US treatment was delivered by the Verasonic® system (probe P4-2). The probe was placed at 5 cm from the tumor (spaced by a water tank, filled with degassed water). […] The perfusion of each tumor was followed by the echographic signal of microvesicles (Verasonic® system). The signal was recorded and post-analysed with Vuebox® software. […] The expression “replenishment time” indicates the time required to supply the area under the ultrasound beam with the vessel with fresh gas-filled microvesicles, after the substantial destruction of MV caused by each US pulse. The expression “MV destruction” corresponds to the loss of integrity or structure of MV caused by acoustic activation of MV by US. This can be provoked for example by MV collapse or gas dissolution and monitored by acoustic signal follow up. All parameters relative to microvesicles and ultrasound treatment were fixed (see Table 4). The therapeutic insonation parameters were chosen in accordance with the previous studies, to obtain a vascular permeabilization in the DA3 tumor.
# NMU tumor = test: Tumour perfusion during US-MV treatment followed by contrast echography (Example 6); type: in vivo, rat; settings: Nimodipine 1.4 mg/kg iv 10 min before; P02 1.2E+09 MV/kg, 4 boluses; US 600 kPa, 1 ms ON/15 s OFF, 20 min
# Procedure: Pre-pubescent rats (female, Sprague Dawley) received a single intra-peritoneal injection of 50 mg/kg of NMU (N-nitroso-N-methylurea, Sigma, Switzerland). […] Serial bolus injections of gas-filled microvesicles (as specified in Table 5) were performed and the tumor was submitted to therapeutic insonation (frequency, acoustic pressure and pulse characteristics as specified in the subsequent examples). The perfusion of tumor during treatment was assessed as described in Example 5. All parameters relative to microvesicles and ultrasound treatment were fixed (see Table 5). The therapeutic insonation parameters were chosen in accordance with the previous studies, to obtain a vascular permeabilization in the NMU tumor.
# [2] = test system: mesenteric rat microcirculation; test: Vasospasm inhibition by vasospasm inhibitor pre-treatment before US-MV (Examples 4, 7); type: in vivo; settings: Nimodipine 1.4 mg/kg, pre-treatment time 10 min; P02 1.5E+09 MV/kg, 1 bolus; US 400 kPa, 1 ms ON/10 s OFF, 5 min
# [3] = Mg^2+ 300 mM, pre-treatment time 0 min
# [4] = Prazosin 0.5 mg/kg, pre-treatment time 10 min
# [5] = Trinitrine (dose not given), pre-treatment time 1 min
structure (smiles),measurement,setting,value
"C[C@H](CS)C(=O)N1CCC[C@H]1C(=O)O [Captoprill, Captopril]",ability to inhibit the vasospasm,[1],did not show any relevant inhibiting activity
"[Mg+2] [Mg^2+, magnesium]",ability to inhibit the vasospasm,[1],good ability to inhibit the vasospasm
same,Vasospasm occurrence (on 3 animals/condition),[1]; [3],0/3
same,"Vasospasm occurrence, percent",[1]; [3],0%
COCCOC(=O)C1=C(C)NC(C)=C(C(=O)OC(C)C)C1c1cccc([N+](=O)[O-])c1 (stereo not shown) [Nimodipine],"mean fluorescence value (Cy5.5 dextran in tumour, ex vivo)","NMU rat tumor model; fifth group: VI pre-administration (Nimodipine 1.4 mg/kg, 10 min before) then US-MV, 600 kPa, 1 ms ON/10 s OFF, 20 min",2060 RFU/px/ms
same,"mean fluorescence signal (Cy5.5 dextran in tumour, ex vivo)","NMU rat tumor model; third group: VI+MV, no US, Nimodipine 1.4 mg/kg 10 min before, MV P02 or Definity 8 μl gas/kg in 4 boluses",1030 RFU/px/ms
same,"Decrease of perfusion in tumor, percent",mouse DA3 tumor model,0%
same,"Decrease of perfusion in tumor, percent",NMU tumor,(100%)
same,Vasospasm occurrence (on 3 animals/condition),[2],0/3
same,"Vasospasm occurrence, percent",[2],100%
COc1cc2nc(N3CCN(C(=O)c4ccco4)CC3)nc(N)c2cc1OC [Prazosin],ability to inhibit the vasospasm,[1],lower ability
same,Vasospasm occurrence (on 3 animals/condition),[1]; [4],1/3
same,"Vasospasm occurrence, percent",[1]; [4],33%
O=[N+]([O-])OCC(CO[N+](=O)[O-])O[N+](=O)[O-] [Trinitrine],ability to inhibit the vasospasm,[1],good ability to inhibit the vasospasm
same,Vasospasm occurrence (on 3 animals/condition),[1]; [5],0/3
same,"Vasospasm occurrence, percent",[1]; [5],(0%)
